Measurements taken from the Kinase Knowledgebase extract (Sharma et al. 2016).

Assays:
MAPK14 (human) [1] = biological target: MAPK14 (human) (UniProt Q16539); experiment: Inhibition of IL-1 Production in LPS-Stimulated PBMCs; conditions: pbmc
MAPK14 (human) [2] = biological target: MAPK14 (human) (UniProt Q16539); experiment: Inhibition of TNF-alpha Production in LPS-Stimulated PBMCs; conditions: pbmc
MAPK14 (human) [3] = biological target: MAPK14 (human) (UniProt Q16539); experiment: Inhibition of IL-1 Production in Whole Blood
MAPK14 (human) [4] = biological target: MAPK14 (human) (UniProt Q16539); experiment: Inhibition of IL-6 Production in Whole Blood
MAPK14 (human) [5] = biological target: MAPK14 (human) (UniProt Q16539); experiment: Inhibition of TNF Production in Whole Blood
MAPK14 (human) [6] = biological target: MAPK14 (human) (UniProt Q16539); experiment: Inhibition of MAPK14 Kinase Activity

Chain of MAPK14 (human) (Q16539 whole entry, looked up): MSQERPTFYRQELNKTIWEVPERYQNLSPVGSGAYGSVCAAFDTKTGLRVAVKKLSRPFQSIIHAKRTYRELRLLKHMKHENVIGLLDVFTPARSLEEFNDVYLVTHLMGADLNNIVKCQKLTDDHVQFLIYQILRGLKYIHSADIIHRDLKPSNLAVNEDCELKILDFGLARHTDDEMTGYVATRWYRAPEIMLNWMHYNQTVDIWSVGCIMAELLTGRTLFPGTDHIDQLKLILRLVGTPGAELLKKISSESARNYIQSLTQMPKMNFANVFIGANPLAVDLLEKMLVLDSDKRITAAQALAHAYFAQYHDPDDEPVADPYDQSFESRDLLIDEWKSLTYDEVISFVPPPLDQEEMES

Structure (SMILES)	IC50 (MAPK14 (human) [1])	IC50 (MAPK14 (human) [2])	IC50 (MAPK14 (human) [3])	IC50 (MAPK14 (human) [4])	IC50 (MAPK14 (human) [5])	further results
NC(=O)Nc1cc(F)ccc1SC1=NN2CNC(=O)C(c3c(Cl)cccc3Cl)=C2C=C1	> 500 nM	> 500 nM				
O=C1NCN2N=C(Sc3ccc(F)cc3Cl)C=CC2=C1c1cc2c(cc1Cl)OCO2			> 500 nM	250 to 500 nM	> 500 nM	
Cc1ccccc1-c1cccc(C(C(N)=O)c2c(Cl)cccc2Cl)n1 (stereo not drawn)		> 500 nM	> 500 nM	> 500 nM	> 500 nM	
NC(=O)C(c1cccc(-c2ccccc2CNCCO)n1)c1c(Cl)cccc1Cl (stereo not drawn)	> 500 nM	> 500 nM				
Cc1ccccc1SC1=NN2CNC(=O)C(c3c(Cl)cccc3Cl)=C2C=C1			> 500 nM	250 to 500 nM		
NC(=O)C(c1ccc(C(=O)c2ccccc2)cn1)c1c(Cl)cccc1Cl (stereo not drawn)	> 500 nM					
COc1ccccc1-c1c(=O)ncn2nc(Sc3ccccc3)ccc12	> 500 nM	> 500 nM				
Cc1ccccc1-c1c(=O)ncn2nc(Sc3ccccc3)ccc12	> 500 nM	> 500 nM				
O=c1ncn2nc(Sc3ccccc3)ccc2c1-c1ccc(Cl)c(Cl)c1	> 500 nM	> 500 nM				
COC(=O)c1ccccc1Sc1ccc2c(-c3c(Cl)cccc3Cl)c(=O)ncn2n1	< 100 nM	100 to 500 nM	> 500 nM		> 500 nM	
Nc1ccc(Cl)c(C2=C3C=CC(Sc4ccc(F)cc4)=NN3CNC2=O)c1Cl			> 500 nM	> 500 nM	> 500 nM	
O=c1ncn2nc(Sc3ccccc3)ccc2c1-c1ccccc1						Ki (MAPK14 (human) [6]): > 20 µM
Cc1cc(F)ccc1SC1=NN2CNC(=O)C(c3c(F)cccc3F)=C2C=C1	100 to 500 nM	> 500 nM				IC50 (MAPK14 (human) [6]): < 100 nM
Cc1c(Sc2ccccc2)nn2cnc(=O)c(-c3c(Cl)cccc3Cl)c2c1C	> 500 nM	> 500 nM				
CN(C)C=Nc1ccc(C2=C3C=CC(Sc4ccc(F)cc4Cl)=NN3CNC2=O)c(Cl)c1			250 to 500 nM	250 to 500 nM	> 500 nM	
NC(=O)C(c1cccc(-c2cccs2)n1)c1c(Cl)cccc1Cl (stereo not drawn)	> 500 nM	> 500 nM				
NC(=O)C(c1ccc(C(O)c2ccccc2)cn1)c1c(Cl)cccc1Cl (stereo not drawn)	100 to 500 nM					
O=c1ncn2nc(Sc3ccc(F)cc3Cl)ccc2c1-c1c(Cl)cccc1Cl			250 to 500 nM	250 to 500 nM	250 to 500 nM	
O=C1NCN2N=C(Sc3ccc(F)cc3)C=CC2=C1c1c(Cl)cccc1Cl			> 500 nM	250 to 500 nM		
COc1cc(Cl)c(C2=C3C=CC(Sc4ccc(F)cc4)=NN3CNC2=O)cc1OC		> 500 nM				
N#Cc1ccccc1SC1=NN2CNC(=O)C(c3c(Cl)cccc3Cl)=C2C=C1			> 500 nM	> 500 nM	> 500 nM	
